Measurements: ChEMBL document CHEMBL1155201, “Structure-activity studies on seco-pancratistatin analogs: potent inhibitors of human cytochrome P450 3A4” (Bioorg Med Chem Lett, 2009)

Columns and labels:
[1] = target: T1, Cytochrome P450 3A4 (Homo sapiens, UniProt P08684); test: Inhibition of human recombinant CYP3A4 assessed as biotransformation of 7-benzyloxyquinoline to 7-hydroxyquinoline at 10 uM measured every 15 mins by fluorescence intensity analysis; type: ADME; details: recombinant enzyme, 0.25 h
T1 sequence (P08684 whole entry): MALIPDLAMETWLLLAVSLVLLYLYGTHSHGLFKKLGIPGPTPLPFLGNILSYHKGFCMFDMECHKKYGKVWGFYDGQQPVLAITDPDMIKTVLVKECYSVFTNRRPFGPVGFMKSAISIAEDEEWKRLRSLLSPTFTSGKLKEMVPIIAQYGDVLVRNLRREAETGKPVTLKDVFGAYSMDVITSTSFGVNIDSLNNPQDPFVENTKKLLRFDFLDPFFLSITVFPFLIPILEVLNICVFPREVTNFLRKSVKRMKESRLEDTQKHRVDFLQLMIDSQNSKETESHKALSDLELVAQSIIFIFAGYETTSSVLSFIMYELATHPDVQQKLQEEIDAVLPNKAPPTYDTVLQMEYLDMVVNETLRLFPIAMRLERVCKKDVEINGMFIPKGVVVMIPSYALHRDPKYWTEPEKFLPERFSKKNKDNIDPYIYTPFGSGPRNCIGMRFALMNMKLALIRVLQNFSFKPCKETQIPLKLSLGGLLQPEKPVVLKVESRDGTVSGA

[2] = target: T1, Cytochrome P450 3A4; test: Inhibition of human recombinant CYP3A4 assessed as biotransformation of 7-benzyloxyquinoline to 7-hydroxyquinoline measured every 15 mins by fluorescence intensity analysis; type: ADME

SMILES	inhibition (INH) [1]	Ki [2] [nM]
O=C(NC[C@@H](c1ccc2c(c1)OCO2)[C@@H](O)[C@H](O)[C@@H](O)CO)c1ccccc1	Not Active	–
CC1(C)O[C@@H]([C@H](O)[C@@H](CNC(=O)c2ccccc2)c2ccc3c(c2)OCO3)[C@H](CO)O1	Not Active	–
COCO[C@@H]([C@@H]1OC(C)(C)O[C@H]1COS(=O)(=O)c1ccc(C)cc1)[C@@H](CNC(=O)c1ccccc1)c1ccc2c(c1)OCO2	–	70
COCO[C@@H]([C@@H]1OC(C)(C)O[C@H]1CO[Si](C)(C)C(C)(C)C)[C@@H](CN=[N+]=[N-])c1ccc2c(c1)OCO2	Not Active	–
COCO[C@@H]([C@@H]1OC(C)(C)O[C@H]1CO[Si](c1ccccc1)(c1ccccc1)C(C)(C)C)[C@@H](CNC(=O)c1ccccc1)c1ccc2c(c1)OCO2	–	580

More lines, now with the values ahead:

inhibition (INH) [1]	Ki [2] [nM]	SMILES
–	1010	COCO[C@@H]([C@@H]1OC(C)(C)O[C@H]1COC(C)=O)[C@@H](CNC(=O)c1ccccc1)c1ccc2c(c1)OCO2
–	30	COCO[C@@H]([C@@H]1OC(C)(C)O[C@H]1CO[Si](C)(C)C(C)(C)C)[C@@H](CNC(=O)c1ccccc1)c1ccc2c(c1)OCO2
–	170	CC1(C)O[C@@H]([C@H](O)[C@@H](CNC(=O)c2ccccc2)c2ccc3c(c2)OCO3)[C@H](CO[Si](C)(C)C(C)(C)C)O1
Not Active	–	CC1(C)O[C@@H]([C@H](OC(=O)c2ccccc2)[C@@H](CN=[N+]=[N-])c2ccc3c(c2)OCO3)[C@H](CO[Si](C)(C)C(C)(C)C)O1
–	1550	COCO[C@@H]([C@@H]1OC(C)(C)O[C@H]1CO)[C@@H](CNC(=O)c1ccccc1)c1ccc2c(c1)OCO2
–	320	COCO[C@@H]([C@@H]1OC(C)(C)O[C@H]1CO[Si](C)(C)C(C)(C)C)[C@@H](CNC(=O)OC(C)(C)C)c1ccc2c(c1)OCO2
